The values that follow come from US8399681B2, “Substituted aminothiazolone indazoles as estrogen related receptor-alpha modulators” (Janssen Pharmaceutica NV, priority 2009, dated 2013).

The subject of experiment [1] is Zucker fa/fa male rats. Briefly: Zucker fa/fa Rat Model Assay. It is filed as in vivo. The settings on record: dosed orally once a day for 4 days, blood collected at day 5. The text has this: Zucker fa/fa is a monogenic model of frank diabetes due to a mutation on the fa gene truncating the leptin receptor and preventing its interaction with its peptide hormone. This mutation results in a hyperphagic phenotype and the rodent develops obesity, hyperlipidemia, fasting hyperglycemia and insulin resistance. Zucker fa/fa male rats were received at four weeks of age and allowed to acclimate for one week. At five weeks of age the animals were single housed in cages in a temperature-controlled room with 12-hour light/dark cycle. The rats were allowed ad libitum access to water and food and throughout the study were maintained on a Purina 5008 diet. Animals were sorted based primarily on fed insulin levels and circulating triglycerides. Animals were dosed orally once a day in the morning for 4 days. The vehicle used was either 20% HPβCD (Hydroxypropyl Beta Cyclodextrin) or 15% Vitamin E/30% PEG-400 (Polyethylene Glycol 400). Fed insulin and triglycerides were measured using blood collected from the tail vein at day 5. Serum plasma samples were prepared by centrifugation in EDTA (Ethylenediaminetetraacetic acid) containing tubes, transferred into 96 well plates and stored at −80° C.

The target in experiment [2] is T1, ERR1 (also known as ERR-α or ERR-1) (Homo sapiens, UniProt P11474).
T1 sequence (P11474 193-421 limits assumed): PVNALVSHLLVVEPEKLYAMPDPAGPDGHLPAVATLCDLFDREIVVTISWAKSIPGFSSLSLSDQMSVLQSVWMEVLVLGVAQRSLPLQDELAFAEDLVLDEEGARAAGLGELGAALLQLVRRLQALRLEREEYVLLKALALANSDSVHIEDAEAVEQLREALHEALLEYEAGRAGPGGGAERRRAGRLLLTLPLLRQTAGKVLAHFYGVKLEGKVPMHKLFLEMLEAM
The experiment can be described thus: TR-FRET assay (disruption of co-activator peptide binding). It counts as biochemical. The settings on record: 6His-tagged ERR1 LBD, GST-hSRC2 co-activator polypeptide; average of 3 independent experiments. The procedure, abridged:
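His6-ERR1 LBD (6 nM) with GST-SRC-2 peptide (6 nM), anti-GST Eu cryptate (30 nM) and anti-His XL665 (7.5 nM) in Tris pH 8/KCl/DTT/BSA buffer, equilibrated 4-18 h at 25 °C. Ex 340, em 615/665 nm; hyperbolic dose-response fit, mean of 3 experiments.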
(In general: In TR-FRET formats the signal depends on donor and acceptor labels being close together.)

As usually defined, the EC50 is the midpoint of the concentration-response curve. Higher therefore signals lower potency in that assay. With `O=C1N=C(N2CCOC[C@H]2CO)S/C1=C\c1ccc2c(cnn2Cc2ccc(Cl)cc2C(F)(F)F)c1` [Example 142, 5-[1-(4-Chloro-2-trifluoromethyl-benzyl)-1H-indazol-5-ylmethylene]-2-(3(R)-hydroxymethyl-morpholin-4-yl)-thiazol-4-one], in experiment [1], the “% Lowering Fed Insulin Levels” value was 63% and the “% Lowering Fed Triglyceride Levels” value was determined as 55%. Besides, the midpoint of the response in experiment [2], the EC50, lay at 20 nM.
For `O=C1N=C(N2CCN[C@@H](CO)C2)S/C1=C\c1ccc2c(c1)c(Cl)nn2Cc1ccc(C(F)(F)F)cc1C(F)(F)F` [Example 186, 5-[1-(2,4-Bis-trifluoromethyl-benzyl)-3-chloro-1H-indazol-5-ylmethylene]-2-(3-(R)-hydroxymethyl-piperazin-1-yl)-thiazol-4-one], in experiment [1], the “% Lowering Fed Insulin Levels” value is recorded as 75% and the “% Lowering Fed Triglyceride Levels” value is 56%. This compound also yielded an EC50 in experiment [2] of 5 nM.
On to `O=C1N=C(N2CCOC(C(=O)O)C2)S/C1=C\c1ccc2c(cnn2Cc2ccc(C(F)(F)F)cc2C(F)(F)F)c1` (stereo not drawn) [Example 188, 4-[5-({1-[2,4-Bis(trifluoromethyl)benzyl]-1H-indazol-5-yl}methylidene)-4-oxo-4,5-dihydro-1,3-thiazol-2-yl]morpholine-2-carboxylic acid], for which, in experiment [1], the “% Lowering Fed Insulin Levels” value worked out at 81% and the “% Lowering Fed Triglyceride Levels” value was 59%. This compound returned an EC50 in experiment [2] of 19.7 nM.
For `O=C1N=C(N2CCc3c(O)noc3C2)S/C1=C\c1ccc2c(cnn2Cc2ccc(Cl)cc2C(F)(F)F)c1` [Example 197, 5-({1-[4-Chloro-2-(trifluoromethyl)benzyl]-1H-indazol-5-yl}methylidene)-2-(3-hydroxy-4,7-dihydroisoxazolo[5,4-c]pyridin-6(5H)-yl)-1,3-thiazol-4(5H)-one] the same measures were 27%, 2% and 29 nM.
For `O=C(O)C1=CCN(C2=NC(=O)/C(=C/c3ccc4c(cnn4Cc4ccc(Cl)cc4C(F)(F)F)c3)S2)CC1` [Example 198, 1-[5-({1-[4-Chloro-2-(trifluoromethyl)benzyl]-1H-indazol-5-yl}methylidene)-4-oxo-4,5-dihydro-1,3-thiazol-2-yl]-1,2,3,6-tetrahydropyridine-4-carboxylic acid], in that order: 35%, 21% and 15 nM.
For `COC(=O)N[C@@H]1C[C@H](CO)N(C2=NC(=O)/C(=C/c3ccc4c(cnn4Cc4ccc(C(F)(F)F)cc4C(F)(F)F)c3)S2)C1` [Example 213, Methyl {1-[5-({1-[2,4-bis(trifluoromethyl)benzyl]-1H-indazol-5-yl}methylidene)-4-oxo-4,5-dihydro-1,3-thiazol-2-yl]-5-(R)-(hydroxymethyl)pyrrolidin-3-(R)-yl}carbamate] the same measures were 42%, 30% and 21 nM.
Turning to `CN1CCN(C2=NC(=O)/C(=C/c3ccc4c(c3)c(C#N)nn4Cc3ccc(Cl)cc3C(F)(F)F)S2)CC1` [Example 223, 1-[4-Chloro-2-(trifluoromethyl)benzyl]-5-{[2-(4-methylpiperazin-1-yl)-4-oxo-1,3-thiazol-5(4H)-ylidene]methyl}-1H-indazole-3-carbonitrile], in experiment [1], the “% Lowering Fed Insulin Levels” value is listed as 77% and the “% Lowering Fed Triglyceride Levels” value is on record as 85%. In experiment [2], a half-maximal response (EC50) required 13.4 nM.
